How the values were obtained:
Assay type in all cases: in vivo
[1] = tested on: Green Peach Aphid (Myzus persicae); test: Green peach aphid root uptake assay on pepper; settings: 3 days after infestation
Method: These assays were designed to evaluate the possibility of using the compounds identified in the foregoing examples for applications such as nursing trays, transplanting water and/or irrigation. Systemic activity against green peach aphid was evaluated in a root uptake assay. Bell peppers (Capsicum annum var. California Wonder) were used as test plants seeded and grown in rock wool plugs. Plants were grown to expanding 1st true leaf stage. The rock wool plugs containing individual plants were placed in 1-ounce cups and surrounded with white clean sand. Five plants were used for each treatment. A volume of 5 mL of the test solutions was applied to each cup (each plant). After insecticide application, the seedlings were infested with green peach aphids and held in a growth chamber (25° C., 50% RH, 16 hr light: 8 hr dark). Number of live aphids on each plant was counted at 3 days after infestation. Calculations for % Control were based on a corrected basis compared to the populations on the reference plants.
Corrected % Control=100*(X−Y)/X • where X=No. of live aphids on reference plants • Y=No. of live aphids on treated plants Assay 1: Compound (3) was tested at a dose range of 5-500 μg/plant. A stock solution of 1000 ppm (1 mg/mL) was made by dissolving technical test compound in acetone:ethanol (90:10). The highest test concentration (100 ppm, 500 μg/5 ml) was prepared by diluting 2.5 mL stock solution with 22.5 mL DI water. The lower test concentrations (25 mL) were similarly prepared by diluting aliquots of the stock solution with DI water. Reference plants received DI water only.
Assay 2: Compound (2) was tested at a dose range of 0.08-50 μg/plant. A stock solution of 1000 ppm was made by dissolving 2 mg of technical test compound in 2 mL acetone. The highest test concentration (10 ppm, 50 μg/5 ml) was prepared by diluting 0.32 mL stock solution with 1.6 mL acetone and 30.08 mL DI water, containing 6% acetone. Lower test concentrations were prepared by sequentially diluting 6.5 mL higher concentration (start from the 10 ppm test solution) with 26.0 ml acetone: DI water (6:94). The solvent/diluent system (6% acetone) was used as reference.

[2] = tested on: Cotton Aphid (Aphis gossypii); test: Cotton aphid seed coating assay on squash; settings: for % Control, seed coating systemic: 1st leaf infested 13 days after planting
Method: Selected compounds of the invention were tested in assays designed to evaluate its systemic activity for control of cotton aphid through seed-coating prior to planting. The crop used in these assays was a hybrid squash (var. Pic-N-Pic). Test compound was formulated in a 10% SC formulation. Ten squash seeds were used for each treatment. Seeds were placed on waxed paper and a pipette was used to apply the original or diluted formulations to each seed. The air-dried, treated seeds were individually planted into 3 inch pots containing metro mix. The pots were placed on a California cart and moved into the greenhouse for sub watering only. At the specified number of days after planting, the plants were infested with approximately 40 wingless aphids. The infested plants were kept in an environmental holding room (23° C., 40% RH, 16 hr light: 8 hr dark) for three days before the number of live aphids was counted under a microscope. Calculations for % Control were based on a corrected basis compared to the populations on the reference plants germinated from seeds treated with the formulation blank.
Corrected % Control=100*(X−Y)/X • where X=No. of live aphids on reference plants • Y=No. of live aphids on treated plants Assay 1. Compounds (1) and (2) were tested at 3 mg/seed. The original 10% SC formulation was used. One half (15 ul) of the sample was spread onto one side of a seed. Once dried (approximately 1 hr), the seed was flipped over and the 2nd half of sample was spread over the other side. Fourteen and 25 days after planting, aphid infestations were conducted on the 1st and 2nd true leaves, respectively.
Assay 2. Compound (2) was tested at 0.1 and 1 mg/seed. For the 1 mg/seed treatment, the original 10% formulation was used. For the 0.1 mg/seed treatment, the 10% formulation were diluted 10× with DI water before application. One half (5 ul) of the sample was spread onto one side of a seed. Once dried (approximately 1 hr), the seed was flipped over and the 2nd half of sample was spread over the other side. Thirteen days after planting, the 1st leaf was infested.

[3] = tested on: Cat Flea (Ctenocephalides felis); test: Cat flea filter wool assay; settings: 48-hour exposure, mean
Method: Compound (2) was evaluated in a dose response series to establish the range of activity of the test compound. Technical material was dissolved in acetone and diluted with the same solvent to obtain the test concentrations. Bioassays were conducted by treating polyester aquarium filter wool with 1.0 ml of the test solution, thoroughly saturating the substrate and allowing it to dry for at least 1 hour. The dry filter wool was then placed into 10 cm plastic Petri dishes and covered with the lid. Each treatment was replicated 5 times. Approximately 15 unfed cat flea adults were placed into each replicate of each dosage being evaluated. Mortality was assessed at 2, 8, 24 and 48 hours after introduction of the fleas into the test system. The mean percent mortality for each dosage group and time interval was determined and results from the 48-hour observation are presented in Table 8.

[4] = tested on: Brown Dog Tick (Rhipicephalus sanguineus); test: Brown dog tick glass plate assay; settings: 48-hour exposure, mean
Method: Compound (2) was evaluated in a dose response series to establish the range of activity of the test compound. Technical material was dissolved in acetone and diluted with the same solvent to obtain the test concentrations. Tick bioassays were conducted by applying 1.0 ml of the test substance to clean dry glass plates confined by 10 cm grease pencil circles drawn on the plates and spread evenly with an acid brush. The plates were allowed to dry for at least 1 hour before adult ticks were confined to the treated substrate using 10 cm Petri dish lids. Each treatment was replicated 5 times. Approximately 5 adult ticks were placed into each replicate. Mortality was assessed at 2, 8, 24 and 48 hours after introduction of the ticks into the test system. The mean percent mortality for each dosage group and time interval was determined and results from the 48-hour observation are presented in Table 9.

[5] = 3 mg/seed, 10% SC formulation, counted 3 days after infestation

## CC(c1ccc(Cl)nc1)S(C)(=O)=NC#N (stereo not shown) [Compound 2, [1-(6-chloropyridin-3-yl)ethyl](methyl)oxido-λ^4-sulfanylidenecyanamide]
[1]; 0.08 μg/plant
  % Control, root uptake systemic: 41%
[1]; 0.4 μg/plant
  % Control, root uptake systemic: 48%
[1]; 2 μg/plant
  % Control, root uptake systemic: 95%
[1]; 10 μg/plant
  % Control, root uptake systemic: 99%
[2]; 0.1 mg/seed
  % Control, seed coating systemic: 36.5%
[2]; 1 mg/seed
  % Control, seed coating systemic: 99.8%
[2]; [5]
  % Control, seed coating systemic 1st leaf, 14 days after planting: 100%
  % Control, seed coating systemic 2nd leaf, 25 days after planting: 99.8%
[3]; 5,000.0 ppm
  % Flea mortality: 100%
[3]; Ctenocephalides felis, 0.5 ppm
  mortality at 0.5 ppm: 52.4%
[3]; Ctenocephalides felis, 5.0 ppm
  mortality at 5 ppm: 74.4%
[3]; Ctenocephalides felis, 50.0 ppm
  mortality at 50 ppm: 76.6%
[3]; Ctenocephalides felis, 500.0 ppm
  mortality at 500 ppm: 83.8%
[4]; 5.0 ppm
  mortality at 5 ppm: 52%
[4]; 50.0 ppm
  mortality at 50 ppm: 56%
[4]; 500.0 ppm
  mortality at 500 ppm: 84%

Source: patent publication US20080108665A1, “Use of N-substituted sulfoximines for control of invertebrate pests” (priority 2006, published 2008)
